Measured values as given in patent publication US7514455B2, “Inhibitors against complex II of electron transport system” (The Kitasato Institute, priority 2002, dated 2009).
pIC50: −log10 of the molar value. Like-named read-outs stand apart in the source and are kept apart here.

Columns and labels:
Assay type in all cases: biochemical
[1] = biological target: T1, bovine heart complex II (succinate-ubiquinone oxidoreductase) (Bos taurus, UniProt P35720+Q3T189+Q95123); assay: Inhibition of succinate dehydrogenase activity of bovine heart complex II (DCIP reduction)
T1 construct: of the bovine heart, mitochondria prepared according to the method of S. Takamiya et al; from tissue; host or cells: bovine heart mitochondria
Description: With regard to the complex II (succinate-ubiquinone oxidoreductase) of the bovine heart, mitochondria prepared according to the method of S. Takamiya et al. (Developmental changes in the respiratory chain of Ascaris mitochondria, Biochim. Biophys. Acta, 1141, 65-71, 1993) were used. Succinate dehydrogenase activity of the complex II was measured by changes of maximum absorption, which was specific to the electron acceptor (DCIP), from oxidized form of 2,6-dichlorophenolindophenol (DCIP, Sigma Inc.) to reduced form with the addition of succinate.
With regard to the complex II of the bovine heart, mitochondria prepared according to the same method described in the referential example 1 was used. Succinate dehydrogenase activity of the complex II was measured by changes of maximum absorption, which was specific to the electron acceptor (DCIP), from oxidized form of DCIP to reduced form with the addition of succinate. […] Reaction rate was measured by that the formation rate of reduced form of DCIP (amM^−1 1 cm^−1: 21) which accepted electron from succinate was measured at absorption changes of 600 nm. Activity was indicated by molar numbers of DCIP reduced per minute. Potassium cyanide, final concentration of 10 mM, was added due to necessity for prevention of leakage of reduction activity by inhibiting terminal oxidase.
With regard to the complex II (succinate-ubiquinone oxidoreductase) of the bovine heart, mitochondria prepared according to the same method described in the referential example 1 was used. Succinate dehydrogenase activity of the complex II was measured by changes of maximum absorption, which was specific to the electron acceptor (DCIP), from oxidized form of DCIP to reduced form with the addition of succinate. […] Reaction rate was measured by that the formation rate of reduced form of DCIP (amM^−1 1 cm^−1: 21) which accepted electron from succinate was measured at absorption changes of 600 nm. Activity was indicated by molar numbers of DCIP reduced per minute. Potassium cyanide, final concentration of 10 mM, was added due to necessity for prevention of leakage of reduction activity by inhibiting terminal oxidase.
With regard to the complex II of the bovine heart, mitochondria prepared according to the same method described in the referential example 1 was used. Succinate dehydrogenase activity of the complex II was measured by changes of maximum absorption, which was specific to the electron acceptor (DCIP), from oxidized form of DCIP to reduced form with the addition of succinate.

rat liver complex II = biological target: T2, rat liver complex II (Rattus norvegicus, UniProt P21913+Q641Z9+Q6PCT8); assay: Inhibition of succinate dehydrogenase activity of rat liver complex II (DCIP reduction)
T2 construct: from tissue; host or cells: rat liver mitochondria
Description: (§1) With regard to the complex II of the rat liver, mitochondria prepared according to the same method described in the referential example 1 was used. Succinate dehydrogenase activity of the complex II was measured by changes of maximum absorption, which was specific to the electron acceptor (DCIP), from oxidized form of DCIP to reduced form with the addition of succinate. Namely, ubiquinone-2 and DCIP were added to the level of 100 ìM and 70 ìM, respectively, into 50 mM phosphate buffer (pH 7.5); atpenin A4 was added therein; further the complex II was added thereto; then potassium succinate with final concentration of 10 mM was added; and the reaction was started at 25° C. Reaction rate was measured by that the formation rate of reduced form of DCIP (amM^−1 1 cm^−1: 21) which accepted electron from succinate was measured at absorption changes of 600 nm. Activity was indicated by molar numbers of DCIP reduced per minute. Potassium cyanide, final concentration of 10 mM, was added due to necessity for prevention of leakage of reduction activity by inhibiting terminal oxidase.
(§2) With regard to the complex II of the rat liver, mitochondria prepared according to the same method described in the referential example 1 was used. Succinate dehydrogenase activity of the complex II was measured by changes of maximum absorption, which was specific to the electron acceptor (DCIP), from oxidized form of DCIP to reduced form with the addition of succinate. […] Reaction rate was measured by that the formation rate of reduced form of DCIP (amM^−1 1 cm^−1: 21) which accepted electron from succinate was measured at absorption changes of 600 nm. […]
as §2
(§3) With regard to the complex II of the rat liver, mitochondria prepared according to the same method described in the referential example 1 was used. Succinate dehydrogenase activity of the complex II was measured by changes of maximum absorption, which was specific to the electron acceptor (DCIP), from oxidized form of DCIP to reduced form with the addition of succinate. […]

Ascaris suum complex II = biological target: T3, Ascaris suum complex II (Ascaris suum, UniProt O44074+P92506+P92507); assay: Inhibition of succinate dehydrogenase activity of Ascaris suum complex II (DCIP reduction)
T3 construct: the purified complex II prepared according to the method of F. Saruta et al; from tissue; complex II purified by the method of Saruta et al. 1995
Description: With regard to the complex II of the Ascaris suum, the purified complex II prepared according to the method of F. Saruta et al. [Stage-specific Isoforms of Complex II (Succinate-Ubiquinone Oxidoreductase) in Mitochondria from the Parasitic Nematode, Ascaris suum: J. Biol. Chem. 270, 928-932, 1995] was used. Succinate dehydrogenase activity of the complex II was measured by changes of maximum absorption, which was specific to the electron acceptor (DCIP), from oxidized form of DCIP to reduced form with the addition of succinate.
as §1, with “Namely,” for “With regard to the complex II of the rat liver, mitochondria prepared according to the same method described in the referential example 1 was used. Succinate dehydrogenase activity of the complex II was measured by changes of maximum absorption, which was specific to the electron acceptor (DCIP), from oxidized form of DCIP to reduced form with the addition of succinate. Namely,”
as §2, with “the Ascaris suum, the purified complex II” for “the rat liver, mitochondria”, “method of” for “method described in the referential”, “example 3” for “example 1”
as §2, with “the Ascaris suum, the purified complex II” for “the rat liver, mitochondria”, “method of” for “method described in the referential”, “example 3” for “example 1”
as §3, with “Ascaris suum, the purified complex II” for “rat liver, mitochondria”, “of” for “described in the referential”, “3” for “1”

[2] = bovine heart mitochondria, ubiquinone-2, DCIP, 10 mM succinate, pH 7.5, 25° C., read-out: 50% inhibitory concentration of the complex II (IC50), Bovine heart
[3] = rat liver mitochondria, ubiquinone-2, DCIP, 10 mM succinate, pH 7.5, 25° C., read-out: 50% inhibitory concentration of the complex II (IC50), Rat liver
[4] = purified Ascaris suum complex II, ubiquinone-2, DCIP, 10 mM succinate, pH 7.5, 25° C., read-out: 50% inhibitory concentration of the complex II (IC50), Ascaris suum

T2 sequence (Q920L2 35-656 partner): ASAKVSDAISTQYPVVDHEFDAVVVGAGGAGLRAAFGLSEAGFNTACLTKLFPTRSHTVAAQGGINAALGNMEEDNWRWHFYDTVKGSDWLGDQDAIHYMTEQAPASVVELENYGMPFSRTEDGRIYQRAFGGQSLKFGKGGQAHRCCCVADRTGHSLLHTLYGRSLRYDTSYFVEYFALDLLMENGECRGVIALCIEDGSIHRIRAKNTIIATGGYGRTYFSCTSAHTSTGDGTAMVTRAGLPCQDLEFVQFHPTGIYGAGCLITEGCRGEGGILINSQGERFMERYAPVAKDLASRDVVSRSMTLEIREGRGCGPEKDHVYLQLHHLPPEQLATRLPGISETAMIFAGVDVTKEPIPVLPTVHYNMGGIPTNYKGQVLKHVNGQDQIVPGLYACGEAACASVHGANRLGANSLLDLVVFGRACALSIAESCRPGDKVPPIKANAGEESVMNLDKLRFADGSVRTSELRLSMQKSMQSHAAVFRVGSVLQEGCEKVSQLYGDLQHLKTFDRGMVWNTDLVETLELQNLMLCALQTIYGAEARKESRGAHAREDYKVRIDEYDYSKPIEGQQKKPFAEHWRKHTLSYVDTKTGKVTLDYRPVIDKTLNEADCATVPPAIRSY
T2 sequence (P21913 31-282): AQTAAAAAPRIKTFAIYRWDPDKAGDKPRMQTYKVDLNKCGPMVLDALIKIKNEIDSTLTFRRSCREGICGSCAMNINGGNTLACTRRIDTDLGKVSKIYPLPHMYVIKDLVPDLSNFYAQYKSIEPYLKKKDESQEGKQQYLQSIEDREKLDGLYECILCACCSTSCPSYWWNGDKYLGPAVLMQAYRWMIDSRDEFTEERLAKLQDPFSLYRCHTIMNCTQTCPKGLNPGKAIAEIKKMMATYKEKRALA
T2 sequence (Q641Z9 30-169 limits assumed): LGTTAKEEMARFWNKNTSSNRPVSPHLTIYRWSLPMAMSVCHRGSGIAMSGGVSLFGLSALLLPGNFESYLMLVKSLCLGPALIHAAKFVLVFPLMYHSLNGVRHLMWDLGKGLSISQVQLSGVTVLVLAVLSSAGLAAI
T2 sequence (Q6PCT8 57-159): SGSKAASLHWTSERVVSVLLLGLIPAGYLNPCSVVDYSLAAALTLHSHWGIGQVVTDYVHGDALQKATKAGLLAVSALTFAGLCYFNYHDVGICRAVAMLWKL
T3 sequence (Q33862 19-645): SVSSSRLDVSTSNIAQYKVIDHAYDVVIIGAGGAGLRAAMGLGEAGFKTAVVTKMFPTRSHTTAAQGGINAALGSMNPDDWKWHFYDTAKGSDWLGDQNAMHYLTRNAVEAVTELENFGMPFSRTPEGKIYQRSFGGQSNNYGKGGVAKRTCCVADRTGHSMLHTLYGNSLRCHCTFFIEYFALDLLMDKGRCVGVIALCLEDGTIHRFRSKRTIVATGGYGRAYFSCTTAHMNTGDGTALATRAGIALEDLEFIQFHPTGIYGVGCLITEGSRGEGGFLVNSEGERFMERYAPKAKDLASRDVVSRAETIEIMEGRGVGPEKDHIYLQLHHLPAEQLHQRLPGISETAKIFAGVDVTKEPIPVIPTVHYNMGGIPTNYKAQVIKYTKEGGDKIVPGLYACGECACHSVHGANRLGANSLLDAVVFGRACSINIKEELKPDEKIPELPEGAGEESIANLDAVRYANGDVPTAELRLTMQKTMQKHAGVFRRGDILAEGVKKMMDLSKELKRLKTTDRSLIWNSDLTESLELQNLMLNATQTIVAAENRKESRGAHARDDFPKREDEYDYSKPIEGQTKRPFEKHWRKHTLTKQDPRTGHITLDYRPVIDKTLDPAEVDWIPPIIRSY
T3 sequence (P92506 32-188): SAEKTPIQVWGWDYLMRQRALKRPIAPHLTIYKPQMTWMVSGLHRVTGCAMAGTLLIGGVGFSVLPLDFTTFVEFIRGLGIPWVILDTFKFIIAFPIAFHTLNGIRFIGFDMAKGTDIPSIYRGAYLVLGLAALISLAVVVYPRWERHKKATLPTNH
T3 sequence (O44074 22-282): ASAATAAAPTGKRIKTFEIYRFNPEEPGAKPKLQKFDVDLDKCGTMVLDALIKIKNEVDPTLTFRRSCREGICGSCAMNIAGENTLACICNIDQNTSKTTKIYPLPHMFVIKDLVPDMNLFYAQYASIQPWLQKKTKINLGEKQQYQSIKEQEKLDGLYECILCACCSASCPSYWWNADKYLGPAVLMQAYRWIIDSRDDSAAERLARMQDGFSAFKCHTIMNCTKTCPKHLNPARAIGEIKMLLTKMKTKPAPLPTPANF
T3 sequence (P92507 26-156): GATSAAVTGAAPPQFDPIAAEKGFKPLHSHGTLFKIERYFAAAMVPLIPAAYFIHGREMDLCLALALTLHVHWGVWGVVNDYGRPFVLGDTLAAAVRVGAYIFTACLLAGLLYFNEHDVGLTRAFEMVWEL
T1 sequence (P31039 44-665 partner): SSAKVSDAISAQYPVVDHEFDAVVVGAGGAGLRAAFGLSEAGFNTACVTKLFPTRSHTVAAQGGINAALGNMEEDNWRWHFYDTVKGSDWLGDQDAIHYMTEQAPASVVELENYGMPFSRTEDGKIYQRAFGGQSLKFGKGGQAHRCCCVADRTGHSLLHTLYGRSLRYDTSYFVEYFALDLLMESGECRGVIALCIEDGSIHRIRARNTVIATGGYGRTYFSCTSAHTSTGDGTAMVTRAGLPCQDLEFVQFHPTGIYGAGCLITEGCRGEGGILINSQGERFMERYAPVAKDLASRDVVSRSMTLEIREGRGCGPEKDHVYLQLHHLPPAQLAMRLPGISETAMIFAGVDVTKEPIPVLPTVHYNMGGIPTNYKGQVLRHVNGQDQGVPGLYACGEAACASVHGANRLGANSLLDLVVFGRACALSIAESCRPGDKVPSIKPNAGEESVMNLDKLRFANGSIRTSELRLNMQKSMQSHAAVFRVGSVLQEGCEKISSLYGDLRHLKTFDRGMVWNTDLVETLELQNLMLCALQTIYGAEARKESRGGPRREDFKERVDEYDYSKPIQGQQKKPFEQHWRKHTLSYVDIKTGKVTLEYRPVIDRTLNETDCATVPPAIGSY
T1 sequence (Q3T189 29-280): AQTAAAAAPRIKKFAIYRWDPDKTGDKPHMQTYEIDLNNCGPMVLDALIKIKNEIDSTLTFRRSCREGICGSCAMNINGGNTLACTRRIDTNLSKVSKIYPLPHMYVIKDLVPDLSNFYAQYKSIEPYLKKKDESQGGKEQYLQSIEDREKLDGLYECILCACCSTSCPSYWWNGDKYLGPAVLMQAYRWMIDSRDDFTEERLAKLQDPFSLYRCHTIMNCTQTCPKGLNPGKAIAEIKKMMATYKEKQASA
T1 sequence (P35720 30-169): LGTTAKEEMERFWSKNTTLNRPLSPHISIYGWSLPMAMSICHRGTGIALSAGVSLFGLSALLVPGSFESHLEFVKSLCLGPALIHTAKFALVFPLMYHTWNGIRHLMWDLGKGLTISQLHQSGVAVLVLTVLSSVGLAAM
T1 sequence (Q95123 56-158): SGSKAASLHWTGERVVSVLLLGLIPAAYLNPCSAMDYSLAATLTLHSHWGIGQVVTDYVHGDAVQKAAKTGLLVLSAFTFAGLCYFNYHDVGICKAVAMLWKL

SMILES | pIC50 [1, 2] | pIC50 (rat liver complex II; [3]) | pIC50 (Ascaris suum complex II; [4]) | pIC50 [1] | pIC50 (rat liver complex II) | pIC50 (Ascaris suum complex II)
C/C=C/CC(C)C(=O)c1c(O)c(OC)c(OC)[nH]c1=O (centres unmarked) [Harzianopyridone, harzianopyridone] | 7.77 | 6.70 | 5.70 |  |  | 
O=C(CC(=O)C(F)(F)F)c1cccs1 [Thenoyltrifluoro Aceton, thenoyltrifluoroacetone, reference compound] | 5.24 |  |  |  |  | 
CC1=C(C(=O)Nc2ccccc2)SCCO1 [Carboxin, carboxin, reference compound] | 5.96 |  |  |  |  | 
COc1nc(O)c(C(=O)C(C)CC(C)C(C)Cl)c(O)c1OC (centres unmarked) [Atpenin A4, atpenin A4] | 7.96 | 7.62 | 6.66 |  |  | 
CCC(C)CC(C)C(=O)c1c(O)nc(OC)c(OC)c1O (centres unmarked) [Atpenin B, atpenin B] | 8.00 | 7.70 | 7.30 |  |  | 
COc1[nH]c(=O)c(C(=O)C(C)CC(C)C(Cl)CCl)c(O)c1OC (centres unmarked) [Atpenin A5, atpenin A5] |  |  |  | 8.44 | 8.43 | 7.49
